# Reference: a melting point compilation (Tetko et al.)
row,SMILES,melting point [°C]
1,CCOc1cc(Cl)c(N)c(Cl)c1,46
2,N[C@@H](Cc1ccc(O)c([N+](=O)[O-])c1)C(=O)O,233 to 235
3,Cc1n[nH]c(C)c1N,192
4,CCCCCCC(O)CCCCC (stereo unspecified),30
5,O=C(C=CC1=NC=NC1)NCCc1cnc[nH]1,240 to 241
6,OOC1CCCCC1,-20
7,CSC(C)=NOC(=O)N(C)SN(C)C(=O)ON=C(C)SC,173
8,Cn1nnc2cc(C=O)ccc21,162
9,COc1c(OC)c(OC(C)=O)c2c(Cl)cccc2c1OC(C)=O,134
10,Cc1c(N)cccc1C(=O)O,187
11,CC(C)NCC(O)c1ccc(O)c(O)c1 (stereo unspecified),170
12,CC1=CC[C@@H]2[C@@H]3CCC4CC(=O)CC[C@]4(C)[C@H]3CC[C@]12C (stereo partly specified),140 to 141
13,CN1CCN(Cc2ccc(C#N)cc2)CC1,69 to 71
14,Cc1o[nH]c(=O)c1CC(N)C(=O)O (racemic),240 to 252
15,CCCCNC(=O)CC#N,54 to 55
16,CN(C)c1ccccc1[N+](=O)[O-],-20
17,Ic1ccc(N2CCOCC2)cc1,131 to 132
18,OCCN1CCN(CCO)CC1,135
19,Brc1cc(Br)c(Oc2c(Br)cc(Br)c(Br)c2Br)cc1Br,171 to 173
20,O=S(=O)(c1ccc(O)cc1)c1ccc(O)cc1,248
21,CCNCC,-50
22,COC(=O)c1ccc(C(=O)OC)c(N)c1,132 to 134
23,NC(=S)c1ccccc1Cl,68 to 70

row,SMILES,melting point [°C]
1,N#Cc1cccc(N2CCOCC2)n1,133 to 135
2,CCCCCCCCCCCCCC(=O)CC,43
3,O=C(O)[C@@H]1Cc2c([nH]c3ccccc23)CN1,295 to 296
4,CCCCCCCCCCCCC(C)CC (stereo unspecified),-22
5,N#Cc1[nH]cnc2ncnc1-2,188
6,CC(=O)/C=C/c1ccc([N+](=O)[O-])o1,192 to 195
7,NC(=S)NN=Cc1ccccc1,154 to 156
8,CC1(C)C(=O)N(Cl)C(=O)N1Br,164
9,CCCCC(CC)CN (stereo unspecified),-76
10,Nc1ccc(Cl)cc1I,40 to 42
11,Cc1ccc(N)c(C(=O)O)c1,174 to 177
12,CC(C)CCCC(C)C1CCC2C3CC=C4CC(Cl)CCC4(C)C3CCC12C (stereo unspecified),97
13,COc1ccc2cc(C(=O)c3cc4ccc(OC)cc4oc3=O)c(=O)oc2c1,271
14,COc1ccc(C(O)C(=O)O)cc1 (stereo unspecified),108 to 111
15,CCOC(=O)C12C(c3cc(Br)ccc3OP1(=O)OCC)C1(C(=O)OCC)C2c2cc(Br)ccc2OP1(=O)OCC (stereo unspecified),272 to 274
16,Cc1ccc2nc3sc(=O)sc3nc2c1,170
17,NCCc1ccc(-c2ccccc2)cc1,53 to 55
18,CN(C)CCc1c[nH]c2ccccc12,46
19,CC(=O)Nc1cc(NC(C)=O)c(OCCO)cc1OCCO,206
20,COc1cc2c(N)nc(N3CCN(C(=O)OCC(C)(C)O)CC3)nc2c(OC)c1OC,158
21,COC(=O)C1C(O)CCC2CN3CCc4c([nH]c5ccccc45)C3CC21 (stereo unspecified),234
22,CC(=O)c1[nH]c2ccccc2c1C,146 to 148
23,CC(C)(C)c1nnc(N)s1,183

row,SMILES,melting point [°C]
1,Cc1cc[nH]c1,-48.4
2,COc1cc2c(c(Oc3c(OC)cc4c(c3O)C(CC(C)C)N(C)CC4)c1O)C(CC(C)C)N(C)CC2 (stereo unspecified),164
3,O=C(CBr)c1c(Cl)cc(C(F)(F)F)cc1Cl,46 to 48
4,CCOC(=O)CN(C(=O)CCl)c1c(CC)cccc1CC,50
5,O=C=Nc1ccc(Br)cc1,41
6,CCCCCC(C)CCC (stereo unspecified),-99
7,Cc1noc(C)c1C#N,46 to 48
8,CCCCC=CC(=O)O,-19
9,COc1cc(C)c(Cl)cc1S(=O)(=O)Cl,127
10,NC(=O)/C(=N\Nc1cc(Cl)c(Cl)cc1Cl)c1nc2ccccc2s1,236
11,CCCN=C=O,-30
12,CCCCCCCC1CCCC1,-53
13,Nc1ccccc1CO,83.5
14,N#Cc1ccc2c(c1)OCCO2,104 to 106
15,CCCCCCCOC(=O)CC,-50.9
16,Nc1nc(F)cc(C(F)(F)F)c1F,67
17,C=CC(=O)NC(C)C,64
18,CCSc1nnc(C(C)(C)C)c(=O)n1N,95
19,CNc1ccc(C(=O)O)cc1,160 to 163
20,CC(C(=O)Nc1ccc(F)c(Cl)c1)(C(F)(F)F)C(F)(F)F,72
21,Cc1cccc(C(C)C)c1O,-14.5
22,CC1OC(OC2CCC3(C=O)C4CCC5(C)C(C6=CC(=O)OC6)CCC5(O)C4CCC3(O)C2)C(O)C(O)C1O (stereo unspecified),238
23,O=[N+]([O-])c1cc(Cl)cc(Cl)c1O,122

row,SMILES,melting point [°C]
1,CCOC(=O)c1cc(-c2ccco2)[nH]n1,137 to 138
2,O=Cc1ccccc1Cn1cncn1,59
3,O=C(OC(Cl)(Cl)Cl)C(Cl)(Cl)Cl,34
4,COC(=O)CCC(C)C1CCC2C3C(O)C(O)C4CCCCC4(C)C3CCC12C (stereo unspecified),120 to 121
5,CCOC(=O)C(C(=O)OCC)C(Br)c1cc(C(Br)C(C(=O)OCC)C(=O)OCC)c([N+](=O)[O-])cc1[N+](=O)[O-] (stereo unspecified),130
6,BrC(Br)c1ccc(C(Br)Br)cc1,170 to 173
7,BrCc1ccc(-c2cccs2)cc1,83 to 84
8,NC(=O)CNCCS(=O)(=O)O,270 to 295
9,CC1=C(O)C(=O)C(C)O1 (stereo unspecified),80.5
10,CCOC(=O)OCC,-43
11,OCc1ccc(N2CCCC2)nc1,61 to 62
12,CCCCCCCC(=O)OCCCC,-42.9
13,CCCC(O)C1(C)CCC(C(=O)O)C(C)(C)O1 (stereo unspecified),179
14,CNC(=O)Oc1cc(C(C)(C)C)cc(C(C)(C)C)c1,103
15,Cc1n[nH]c(=S)n(N)c1=O,183 to 184
16,O=C(O)c1cc([N+](=O)[O-])cc(C(F)(F)F)c1,130
17,CCCSCC,-117
18,COc1ccc(C(N)=S)cc1[N+](=O)[O-],191 to 192
19,CC(C#N)CCC#N (stereo unspecified),-45
20,Nc1ccc(I)cc1C(=O)O,219 to 221
21,CCN(CC)CN1C(=O)C(=Cc2ccco2)SC1=S,145
22,O=CNc1ccc(Cl)cc1C(=O)c1ccccc1,89 to 91
23,Cn1nc(CO)cc1-c1ccco1,43 to 48

# Results, then the compound that gave them:
row,melting point [°C],SMILES
1,155,COc1ccc(-c2cc(=O)c3ccccc3o2)cc1OC
2,270,NC(=O)/C(=N\Nc1cc(Cl)ccc1Cl)c1nc2ccccc2s1
3,38 to 40,NCc1ccc(-c2ccccc2)nc1
4,104,CCC(=O)Oc1ccc(C(CC)=C(CC)c2ccc(OC(=O)CC)cc2)cc1
5,256,Cc1n[nH]c(C)c1-c1ccccc1C(=O)O
6,150,CC(C)(C)c1ccc(C2CCC3(CC2)Cc2ccc(C(=O)Nc4ccccc4OCCCC(=O)O)cc2C3)cc1 (stereo unspecified)
7,142,O=C(NC(CC=Cc1ccccc1)C(=O)O)OCC1c2ccccc2-c2ccccc21 (stereo unspecified)
8,62,CC(C)(C)c1ccc(OC(=O)c2ccccc2O)cc1
9,96,CC(C(=O)O)c1ccc(C(=O)c2ccccc2)s1 (stereo unspecified)
10,85 to 88,CC(C)(C)OC(=O)N[C@@H](Cc1ccccc1)C(=O)O
11,175,CCc1ccccc1NC(=O)c1cccc2ccccc12
12,160,c1ccc(CNc2ccccc2-n2c(-c3ccccc3)nc3ccccc32)cc1
13,167,O=C1OC(c2ccccc2)=NC1=Cc1ccccc1
14,43 to 49,NCC(c1ccccc1)c1ccccc1
15,218,N#CC1=C(N)Oc2c(c(C(F)(F)F)nn2-c2ccccc2)C1c1ccc(O)cc1 (stereo unspecified)
16,153,CC1(C)OC(=O)C(=Cc2ccc(-c3ccccc3[N+](=O)[O-])o2)C(=O)O1
17,148,NC(=O)Oc1ccc(Cc2ccccc2)cc1
18,124,CCCCC1C(=O)N(c2ccccc2)N(c2ccc(O)cc2)C1=O (stereo unspecified)
19,213,O=C(Nc1ccccc1)OCCc1ccc(CCOC(=O)Nc2ccccc2)cc1
20,207 to 209,CSc1nc2cc(NCc3ccccc3Cl)ccc2[nH]1

row,melting point [°C],SMILES
1,20,CCN(C)C(=O)COC(=O)c1ccccc1
2,171,CC(C)(C(=O)O)C(CC(=O)O)c1ccccc1 (stereo unspecified)
3,238,CC1CC=CC2(O1)OC1CC(=O)OC1C1(O)C(=O)c3ccccc3C(=O)C21O (stereo unspecified)
4,201 to 205,Oc1ccccc1N=CC=Nc1ccccc1O
5,130 to 132,O=C(O)c1cc(-c2ccccc2)c(C(F)(F)F)s1
6,190 to 191,Cc1noc(-c2ccccc2)c1C(=O)O
7,58 to 62,CC1=CP(=O)(c2ccccc2)CC1 (stereo unspecified)
8,137,C=CC[C@H](NC(=O)OCC1c2ccccc2-c2ccccc21)C(=O)O
9,164,c1ccc(CC(=NNc2cccc(NN=C(Cc3ccccc3)c3ccccc3)c2)c2ccccc2)cc1
10,41 to 42,Brc1ccccc1COc1ccccc1
11,142,CCCCCCNC(=O)C=Cc1ccc(O)c(O)c1
12,117,Cc1cccc2c1C(=O)OC2O (stereo unspecified)
13,94,CCOC(=O)c1cc2ccccc2oc1=O
14,75 to 77,c1ccc(-c2cc[nH]n2)cc1
15,146,CCCCc1cc2ccccc2c(OCCN(C)C)n1
16,142,CC1(C)OC(=O)C(=Cc2ccccc2F)C(=O)O1
17,188,S=C(Nc1ccccc1)N1CC(c2ccccc2)CC1c1ccccc1 (stereo unspecified)
18,140 to 143,Nc1ccc(C(=O)c2ccccc2)cc1[N+](=O)[O-]
19,178,CCc1ccccc1C(=O)N(NC(=O)c1ccccc1)C(C)(C)C
